Entries after “also recorded” stand apart in the source; their conditions may differ.
What was measured:
healthy school children [1] = assay: Episodic memory test (Recall of Objects, British Ability Scales) after isomaltulose or glucose sweetened meal; type: in vivo, human
Procedure: (§1) Seventy-five healthy school children consumed in crossover design two meals designed to differ in their glycemic load (GL; Amount of carbohydrate×Glycemic Index, GI, of food items; GI of isomaltulose=32, GI of glucose=100) while being similar in macro-nutrient content. The cognitive test block takes 45 minutes and was once assessed in the early postprandial phase and once in the late post-prandial phase (>150 minutes) after meal ingestion. Every child participated in four blocks of testing (FIG. 2). • Early test block after meal A • Late test block after meal A • Early test block after meal B • Late test block after meal B
(§2) On each cognitive test block parallel versions of the cognitive tests were administered.
(§3) Both meals offered a similar intake of energy (1385 KJ) and macro-nutrients (84.4% carbohydrates, 10.6% protein and 5.0% fat) while differing in glycemic load (GL; Amount of carbohydrate×Glycemic Index of food items), that is whether glucose was released slowly or i quickly into the blood stream. The meals were composed as followed (% of total energy): • High GL meal: Cornflakes+milk (35.3%), yoghurt+fruit preparation (14.2%), glucose (50.5%). • Low GL meal: Cornflakes+milk (35.3%), yoghurt+fruit preparation (14.2%), isomaltulose (50.5%).
The approach was based on the Recall of Objects test of the British Ability Scales (Elliott, British Ability Scales, 1996, National foundation of Educational Research) and children had to recall up to 60 objects.

healthy school children [2] = assay: Attention test (paradigm of Shakow, signal detection, error rate) after isomaltulose or glucose sweetened meal; type: in vivo, human
Procedure: as §1, §2, §3
The paradigm of Shakow was used to assess attention with error rate as outcome (Shakow, Arch general Psychiat, 1962, 6, 1-17). […]

[3] = glucose standard = 100; cited from earlier work
[4] = after ingestion of 50 g; cited from earlier work
subjects = conditions: at 150 minutes following ingestion; cited from earlier work
healthy adults = conditions: milk-based drink; cited from earlier work

SMILES	episodic memory, isomaltulose meal versus glucose meal (healthy school children [1]; early postprandial phase (early cognitive test block))	episodic memory, isomaltulose meal versus glucose meal (healthy school children [1]; late postprandial phase, >150 minutes after meal consumption)	episodic memory, late postprandial phase compared to early postprandial phase (healthy school children [1]; within the same meal)	attention error rate, isomaltulose meal versus glucose meal (healthy school children [2]; early postprandial phase)	attention performance (error rate), isomaltulose meal versus glucose meal (healthy school children [2]; late postprandial phase, >150 minutes after meal ingestion)	glycemic index (GI) [3]	blood glucose or glycemic response curve versus sucrose [4]	time after ingestion at which blood glucose approximates the initial levels [4]	cognitive performance tests versus sucrose-containing drinks (subjects)	effect on cognitive performance (healthy adults)
OC[C@H]1O[C@H](OC[C@H]2OC(O)(CO)[C@@H](O)[C@@H]2O)[C@H](O)[C@@H](O)[C@@H]1O (some centres unmarked) [isomaltulose]	did not differ	significantly better episodic memories	not significantly different	nearly the same attention error rate; also recorded: nearly the same error rates	performed better by tendency; also recorded: trend for better attention performance	32	much lower	about 2.5 hours	performed significantly better	does not affect cognitive performance
OC[C@H]1O[C@@](CO)(O[C@H]2O[C@H](CO)[C@@H](O)[C@H](O)[C@H]2O)[C@@H](O)[C@@H]1O [sucrose, reference compound]						65				

Reference: patent US20130202733A1, “ISOMALTULOSE FOR USE IN ENHANCING MENTAL PERFORMANCE” (SUEDZUCKER AKTIENGESELLSCHAFT MANNHEIM/OCHSENFURT, priority 2010, published 2013)
